Laboratory results from patent US11236077B2, “Fruquintinib eutectic crystal, preparation method therefor, composition, and uses thereof” (Hangzhou SoliPharma Co., Ltd., priority 2018, dated 2022).
Converted amounts (≈) assume the structure as drawn.

Columns and labels:
Format in all cases: physicochemical
[1] = Crystal slurry experiment in water (crystalline form stability); conditions: Comparative Example 2, result in words
Experimental: X-ray powder diffraction (XRPD): performed on Bruker D8 Advance diffractometer. Samples were tested at room temperature. Testing conditions: 2θ scan range 3 to 40°, step size 0.02° and speed 0.2 s/step. […] The specific operation steps: respectively took 10 mg of each of the above samples and put them into a 5 ml glass bottle respectively, added 2 ml deionized water, stirred the solution at room temperature for 24 hours, then took the samples for filtration; and analyzed their crystalline forms with XRD.

[2] = Storage stability in desiccators at room temperature and RH 10% to 90%; conditions: room temperature, 4 months
Solubility in water [3] = conditions: for solubility in 25° C. water compared with known fruquintinib Form I: Comparative Example 1, result in words; for solubility at 1 min: deionized water, 25 °C, water, thermodynamic from solid; for solubility at 1 min / Solubility in Water: 10 mg in 10 ml deionized water, ultrasound 1 min, filtration, HPLC; for Solubility in Water: 25° C.
Experimental: High performance liquid chromatography (HPLC) data were collected on Ultimate 3000 and the concentration was tested with the external standard method. […] The specific operation steps: respectively took 10 mg of each of the above samples and put them into a 20 ml glass bottle respectively, added 10 ml deionized water, placed the solution at 25° C. ultrasound for 1 min, then took the samples for filtration and analyzed their concentrations using HPLC; calculated their solubility in water respectively.

Solubility in water [4] = conditions: background statement, conditions not given

| crystalline form after having been stirred in water for 24 hours [1] | appearance, XRPD and melting point after storage [2] | solubility in 25° C. water compared with known fruquintinib Form I (Solubility in water [3]) | solubility at 1 min (Solubility in water [3]) | Solubility in Water (Solubility in water [3]; listed as Crystalline Form of Compound A of the present invention) | Solubility in Water (Solubility in water [3]) | solubility in water (inventors' finding) (Solubility in water [4]) | SMILES |
| --- | --- | --- | --- | --- | --- | --- | --- |
| kept its form unchanged | unchanged | higher | 9.4 µg/mL | – | – | – | CNC(=O)c1c(C)oc2cc(Oc3ncnc4cc(OC)c(OC)cc34)ccc12.O=C(O)/C=C\C(=O)O |
| kept its form unchanged | unchanged | higher | 12 µg/mL | – | – | – | CNC(=O)c1c(C)oc2cc(Oc3ncnc4cc(OC)c(OC)cc34)ccc12.O=C(O)CC(=O)O |
| kept its form unchanged | unchanged | higher | – | 9.9 µg/mL (≈ 25.2 µM) | – | – | CNC(=O)c1c(C)oc2cc(Oc3ncnc4cc(OC)c(OC)cc34)ccc12 [Compound A] |
| – | – | – | – | – | 2.2 µg/mL (≈ 5.59 µM) | poor | CNC(=O)c1c(C)oc2cc(Oc3ncnc4cc(OC)c(OC)cc34)ccc12 [Known fruquintinib Crystalline Form I, 6-(6,7-dimethoxyquinazoline-4-oxy)-N,2-dimethyl benzofuran-3-formamide, reference compound] |
| – | – | – | – | – | 2.1 µg/mL (≈ 5.34 µM) | – | CNC(=O)c1c(C)oc2cc(Oc3ncnc4cc(OC)c(OC)cc34)ccc12 [Known fruquintinib Crystalline Form III, 6-(6,7-dimethoxyquinazoline-4-oxy)-N,2-dimethyl benzofuran-3-formamide, reference compound] |
| – | – | – | – | – | 2.6 µg/mL (≈ 6.61 µM) | – | CNC(=O)c1c(C)oc2cc(Oc3ncnc4cc(OC)c(OC)cc34)ccc12 [Known fruquintinib Crystalline Form VII, 6-(6,7-dimethoxyquinazoline-4-oxy)-N,2-dimethyl benzofuran-3-formamide, reference compound] |
